Measured values reported in patent US9447114B2, “Thieno- and furo[2,3-d]pyrimidine-2,4[1H,3H]-dione derivatives” (Hydra Biosciences, Inc., priority 2014, dated 2016).

Tests used:
[1] = molecular target: T1, TRPC5 channel (Homo sapiens (Human), UniProt Q9UL62); assay: Whole-cell patch clamp of TRPC5 current; type: cell-based; details: TRPC5-expressing HEK293 TREx cells, current activated by 80 μM LaCl3 and 1.4 μM free Ca2+ in pipette, IC50 estimated
From the text: Patch clamp experiments permit the detection of currents through the TRPC5 channel in the cell line described above. In normal whole-cell patch clamp recordings, a glass electrode is brought into contact with a single cell and a high-resistance (gigaohm) seal is established with the cell membrane. The membrane is then ruptured to achieve the whole-cell configuration, permitting control of the voltage of the cell membrane and measurement of currents flowing across the membrane using the amplifier attached to the electrode and resulting in the replacement of cytoplasm with the pipette solution. A perfusion system permits control of the extracellular solution, including the addition of blockers and activators of the current. The current can be activated by including 1.4 μM free Ca^2+ in the pipette (intracellular) solution, and 80 μM LaCl3 in the extracellular solution.
TRPC5 cells were induced 20-48 hours, removed from growth plates, and replated at low density (to attain good single-cell physical separation) on glass coverslips for measurement. In some cases, cells were grown in low density overnight on glass coverslips. Patch clamp recordings were made in the whole-cell mode with a holding potential of −40 mV. Every 5 seconds, a voltage ramp was applied from −120 to +100 mV, 400 ms in duration. Currents elicited were quantified at −80 mV and +80 mV. The internal solution consisted of 140 mM cesium aspartate, 10 mM HEDTA, 2 mM CaCl2, 2.27 mM MgCl2 and 10 mM HEPES, pH 7.2, with 1,400 nM calculated free Ca^2+. The external solution consisted of 150 mM NaCl, 4.5 mM KCl, 1 mM MgCl2, 2 mM CaCl2 10 mM HEPES, 10 mM glucose, 1 mM EGTA, pH 7.4. Upon addition of LaCl3, TRPC5 current was induced only in TRPC5-expressing cells and not in parental HEK293 TREx cells. Removal of the LaCl3 stimulus causes most of the current to go away. Potential blockers were tested for ability to block both inward and outward currents in the continued presence of LaCl3.
IC50 of a compound of Formula (I) was estimated by testing the compound at 5 μM and 500 nM. […] IC50 for a compound of Formula (I) between 500 nM and 5 μM was similarly estimated.

[2] = molecular target: T1, TRPC5 channel; assay: High throughput screening assay: intracellular Ca2+ rise, Fluo4 cell-based fluorescence; details: HEK293/TREx cells inducibly expressing TRPC5, high-Ca2+ Ringer, 14 mM Ca2+ final, triplicate, 0.027-20 μM
From the text: The assay depended on detection of the rise in intracellular Ca2+ concentration ([Ca2+]i) following channel activation in cells inducibly expressing the TRPC5 channel. Ca2+ rise was quantified with the use of fluorescent Ca2+ indicators that were loaded into cells and thereafter indicated the [Ca2+]i Ca2+ influx followed activation of the TRPC5 channel. Compounds inhibiting the [Ca2+]i rise were considered hits for further investigation.
The commercially available HEK293/TREx line (Invitrogen) was stably transfected with a TRPC5 construct and screened by conventional calcium imaging to find clones with TRPC5 expression following stimulation with 1 μg/ml tetracycline. These cells were maintained in the growth medium recommended by the manufacturer supplemented with 100 μg/ml hygromycin to promote retention of the TRPC5 construct. After growing to near confluency, cells were plated at a density of ˜35,000 cells/well in 384 well CellBind plates (Corning) in the presence of 1 μg/ml tetracycline, and allowed to grow for 20-30 hrs. A nearly confluent monolayer resulted. Cells were then loaded with Ca2+ dye: Fura-2/AM or Fluo4/AM was added to the wells to a final concentration of 4 μM or 0.5 μM, respectively, and incubated for 80 min or 60 min, respectively, at room temperature. Supernatant was then removed from the cells by inverting plates with a sharp flick, and 25 μl Hank's Balanced Salt Solution (HBSS; 0.185 g/l D-glucose, 0.9767 g/l MgS04 (anhydrous), 0.4 g/l KCl, 0.06 g/l KH2PO4 (anhydrous), 0.35 g/l NaHCO3, 8.0 g/l NaCl, and 0.04788 g/l Na2HPO4 (anhydrous); pH 7.4) was then added to each well. Following ˜0.5 hour for recovery from loading, cells were assayed using the Hamamatsu FDSS 6000 system, which permitted illumination alternately at 340 nm and 380 nm for Fura-2 experiments, or at 485 nm for Fluo4 experiments. Frames were acquired at a rate of 0.2 Hz. During the assay, the plates were continuously vortexed, with pipette mixing of wells following addition of each reagent. For the screening assay, 26 μl of a diluted compound stock (at 50 μM) was added to each well for 2 minutes following the collection of a short (4 frame) baseline. 13 μl 62 mM high-Ca2+Ringer solution (4.17 ml of normal ringer (with 2 mM Ca2+) plus 5.83 ml of isotonic calcium ringer (105 mM Ca2+; in this ringer all sodium has been replaced with calcium)) was then added to each well, achieving a final concentration of 14 mM Ca2+ and 10 μM test compound. Data was collected for ˜3 minutes following addition of high Ca2+Ringer, where the fluorescent intensity (for Fluo4) and the F340/F380 ratio (for Fura-2) were proportional to the [Ca2+]i Negative controls consisted of HEK293/TREx TRPC5 cells exposed to high Ca2+ solution, but no compound. Positive control conditions consisted of addition of 2-APB, a promiscuous blocker of TRPC5 and other channels, to columns 23 and 24 of the plates, to a final concentration of 200 μM. These controls defined a screening window, and “hits” were defined as those compounds inhibiting the fluorescence response by at least 40%. IC50 values were determined for compounds defined as “hits.” The Fluo4 cell-based fluorescence assay was used to determine the intracellular Ca2+ concentration in the presence of varying drug concentration. Final concentrations of compounds tested were 20 μM, 6.667 μM, 2.222 μM, 0.741 μM, 0.247 μM, 0.082 μM, and 0.027 μM. Compounds were tested in triplicate at all concentrations. Standard software was used to fit IC50 curves.
Additionally or alternatively, efficacy can be represented as % inhibition in the presence (of a given concentration of compound) versus the absence of compound or in comparison to a control compound. For example, efficacy can be represented as % inhibition of ion flux in the presence versus the absence of compound.

T1 sequence (Q9UL62 whole entry, the tested form may be a part): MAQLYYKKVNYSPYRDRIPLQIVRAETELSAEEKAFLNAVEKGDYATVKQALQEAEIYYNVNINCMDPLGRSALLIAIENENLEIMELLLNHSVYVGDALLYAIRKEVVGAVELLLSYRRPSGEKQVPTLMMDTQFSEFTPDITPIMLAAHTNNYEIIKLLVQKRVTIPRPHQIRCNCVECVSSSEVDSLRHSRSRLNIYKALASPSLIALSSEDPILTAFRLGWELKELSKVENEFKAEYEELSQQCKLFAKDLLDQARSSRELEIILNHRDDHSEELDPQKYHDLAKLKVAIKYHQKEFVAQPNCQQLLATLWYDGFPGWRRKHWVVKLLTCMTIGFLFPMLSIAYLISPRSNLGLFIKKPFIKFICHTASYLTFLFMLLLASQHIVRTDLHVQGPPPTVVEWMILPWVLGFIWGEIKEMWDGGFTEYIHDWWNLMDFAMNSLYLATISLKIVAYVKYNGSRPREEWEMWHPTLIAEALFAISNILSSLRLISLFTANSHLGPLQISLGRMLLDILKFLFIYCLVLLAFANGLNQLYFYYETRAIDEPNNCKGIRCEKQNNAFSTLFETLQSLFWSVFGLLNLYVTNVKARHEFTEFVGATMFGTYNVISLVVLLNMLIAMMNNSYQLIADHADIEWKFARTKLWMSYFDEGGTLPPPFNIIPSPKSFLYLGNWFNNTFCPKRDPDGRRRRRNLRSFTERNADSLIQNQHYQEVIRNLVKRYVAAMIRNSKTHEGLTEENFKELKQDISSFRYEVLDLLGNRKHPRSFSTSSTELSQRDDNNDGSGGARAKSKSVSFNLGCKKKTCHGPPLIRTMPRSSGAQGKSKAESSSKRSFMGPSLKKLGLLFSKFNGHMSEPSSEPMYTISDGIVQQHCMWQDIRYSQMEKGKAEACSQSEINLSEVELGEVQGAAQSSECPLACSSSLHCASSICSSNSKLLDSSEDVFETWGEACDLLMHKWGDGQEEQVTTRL

SMILES | IC50 [1] | IC50 [2]
Cn1c(=O)n(CCCO)c(=O)c2c(Cc3ccc(Cl)cc3)c(Oc3cccc(OC(F)(F)F)c3)sc21 [Compound 1, 5-(4-chlorobenzyl)-3-(3-hydroxypropyl)-1-methyl-6-(3-(trifluoromethoxy)phenoxy)thieno[2,3-d]pyrimidine-2,4(1H,3H)-dione] | < 1 nM | 584 nM
Cn1c(=O)n(CCCO)c(=O)c2c(Cc3ccc(Cl)cc3)c(Oc3cccc(Cl)c3)sc21 [Compound 2, 5-(4-chlorobenzyl)-6-(3-chlorophenoxy)-3-(3-hydroxypropyl)-1-methylthieno[2,3-d]pyrimidine-2,4(1H,3H)-dione] | < 1 nM | 117 nM
CC(C)CCc1c(-c2cccc(OC(F)(F)F)c2)sc2c1c(=O)n(CCCO)c(=O)n2C [Compound 3, 3-(3-hydroxypropyl)-5-isopentyl-1-methyl-6-(3-(trifluoromethoxy)phenyl)thieno[2,3-d]pyrimidine-2,4(1H,3H)-dione] |  | 340 nM
Cn1c(=O)n(CCCO)c(=O)c2c(C(O)c3ccc(Cl)cc3)c(-c3cccc(Cl)c3)sc21 (stereo not shown) [Compound 4, 6-(3-chlorophenyl)-5-((4-chlorophenyl) (hydroxy)methyl)-3-(3-hydroxypropyl)-1-methylthieno[2,3-d]pyrimidine-2,4(1H,3H)-dione] |  | 55 nM
Cc1c(-c2ccc(Cl)c(Cl)c2)sc2c1c(=O)n(CCCO)c(=O)n2C [Compound 5, 6-(3,4-dichlorophenyl)-3-(3-hydroxypropyl)-1,5-dimethylthieno[2,3-d]pyrimidine-2,4(1H,3H)-dione] |  | < 27 nM
Cc1c(-c2ccc(F)c(C(F)(F)F)c2)sc2c1c(=O)n(CCCO)c(=O)n2C [Compound 6, 6-(4-fluoro-3-(trifluoromethyl)phenyl)-3-(3-hydroxypropyl)-1,5-dimethylthieno[2,3-d]pyrimidine-2,4(1H,3H)-dione] |  | < 27 nM
Cc1c(-c2ccc3ccccc3c2)sc2c1c(=O)n(CCCO)c(=O)n2C [Compound 7, 3-(3-hydroxypropyl)-1,5-dimethyl-6-(naphthalen-2-yl)thieno[2,3-d]pyrimidine-2,4(1H,3H)-dione] |  | 34.9 nM
Cc1c(-c2cncc(Cl)c2)sc2c1c(=O)n(CCCO)c(=O)n2C [Compound 8, 6-(5-chloropyridin-3-yl)-3-(3-hydroxypropyl)-1,5-dimethylthieno[2,3-d]pyrimidine-2,4(1H,3H)-dione] |  | 1700 nM
Cc1c(-c2ccccc2OC(F)(F)F)sc2c1c(=O)n(CCCO)c(=O)n2C [Compound 13, 3-(3-hydroxypropyl)-1,5-dimethyl-6-(2-(trifluoromethoxy)phenyl)thieno[2,3-d]pyrimidine-2,4(1H,3H)-dione] |  | < 21 nM
Cc1c(-c2cccc(OC(F)(F)F)c2)sc2c1c(=O)n(CCCO)c(=O)n2C [Compound 14, 3-(3-hydroxypropyl)-1,5-dimethyl-6-(3-(trifluoromethoxy)phenyl)thieno[2,3-d]pyrimidine-2,4(1H,3H)-dione] |  | 82.2 nM
Cc1c(-c2ccc(F)c(F)c2)sc2c1c(=O)n(CCCO)c(=O)n2C [Compound 15, 6-(3,4-difluorophenyl)-3-(3-hydroxypropyl)-1,5-dimethylthieno[2,3-d]pyrimidine-2,4(1H,3H)-dione] |  | 112 nM
Cc1c(-c2ccccc2Cl)sc2c1c(=O)n(CCCO)c(=O)n2C [Compound 16, 6-(2-chlorophenyl)-3-(3-hydroxypropyl)-1,5-dimethylthieno[2,3-d]pyrimidine-2,4(1H,3H)-dione] |  | 27 nM
Cc1c(-c2cccc(F)c2)sc2c1c(=O)n(CCCO)c(=O)n2C [Compound 18, 6-(3-fluorophenyl)-3-(3-hydroxypropyl)-1,5-dimethylthieno[2,3-d]pyrimidine-2,4(1H,3H)-dione] |  | 27 nM
Cc1c(-c2cccc(Cl)c2)sc2c1c(=O)n(CCCO)c(=O)n2C [Compound 19, 6-(3-chlorophenyl)-3-(3-hydroxypropyl)-1,5-dimethylthieno[2,3-d]pyrimidine-2,4(1H,3H)-dione] |  | 226 nM
CC(C)CC(O)c1c(-c2cccc(OC(F)(F)F)c2)sc2c1c(=O)n(CCCO)c(=O)n2C (stereo not shown) [Compound 22, 5-(1-hydroxy-3-methylbutyl)-3-(3-hydroxypropyl)-1-methyl-6-(3-(trifluoromethoxy)phenyl) thieno[2,3-d]pyrimidine-2,4(1H,3H)-dione] |  | 369 nM
Cn1c(=O)n(CCCO)c(=O)c2c(Cc3ccc(Cl)cc3)c(-c3cccc(Cl)c3)sc21 [Compound 23, 5-(4-chlorobenzyl)-6-(3-chlorophenyl)-3-(3-hydroxypropyl)-1-methylthieno[2,3-d]pyrimidine-2,4(1H,3H)-dione] |  | 27 nM
Cn1c(=O)n(CCCO)c(=O)c2c(Cc3ccc(Cl)cc3)c(-c3ccc(Cl)cc3)sc21 [Compound 24, 5-(4-chlorobenzyl)-6-(4-chlorophenyl)-3-(3-hydroxypropyl)-1-methylthieno[2,3-d]pyrimidine-2,4(1H,3H)-dione] | 1.84 nM | 242 nM
Cc1c(-c2ccc(Cl)cc2)sc2c1c(=O)n(CCCO)c(=O)n2C [Compound 25, 6-(4-chlorophenyl)-3-(3-hydroxypropyl)-1,5-dimethylthieno[2,3-d]pyrimidine-2,4(1H,3H)-dione] | 15.7 nM | 168 nM
Cn1c(=O)n(CCCO)c(=O)c2c(Cc3ccc(Cl)cc3)c(-c3cccc(OC(F)(F)F)c3)sc21 [Compound 26, 5-(4-chlorobenzyl)-3-(3-hydroxypropyl)-1-methyl-6-(3-(trifluoromethoxy)phenyl)thieno[2,3-d]pyrimidine-2,4(1H,3H)-dione] | < 1 nM | 1.91 nM
O=c1c2c(Cc3ccc(Cl)cc3)c(-c3cccc(Cl)c3)oc2n(CCCO)c(=O)n1CCCO [Compound 28, 5-(4-chlorobenzyl)-6-(3-chlorophenyl)-1,3-bis(3-hydroxypropyl)furo[2,3-d]pyrimidine-2,4(1H,3H)-dione] |  | 4330 nM
